For one experiment, the system named is PAF-induced lethal shock. Briefly: Effect on PAF-induced lethal shock in mice. It is filed as in vivo, mice (male ICR). The conditions noted are these: 80 μg/kg PAF i.v., 24 hours. The method, then:
The experiment was carried out according to the method of Young et al. described in Prostaglandins, vol. 30, p. […] Groups of 9 to 15 male ICR mice (Charles River) weighing 25-30 g were used. 80 μg/kg of PAF (Serdary Research Lab.) solution was intravenously administered in a lateral tail vein 1 hour after the oral administration of test compound (0.1 ml/10 g). […] Results were given as number of survivors/number of employed animals and survival rates (%) in Table 3.

For experiment [1], the system named is PAF-induced platelet aggregation. Put plainly: Inhibitory effect on PAF-induced platelet aggregation in rabbits (in vitro test). It is filed as cell-based. The conditions noted are these: Oryctolagus cuniculus, rabbit PRP, PAF 1.8×10^-7 M, 37° C., read-out: Inhibition of PAF-induced platelet aggregation, IC50. The method, then:
Blood samples to which was added 0.1 volume of 3.8% sodium citrate were collected from rabbits. Platelet rich plasma (PRP) was prepared by centrifuging the blood sample at 200×g for 10 minutes, and platelet poor plasma (PPP) was prepared by centrifuging the remaining blood sample at 1000×g for 10 minutes.
(§1) Aggregation ability was measured with a turbidimetric device (6-channel NKK Hematracer 1, model PAT-6A) according to the method of G.V.R. Born described in J. Physiology, vol. 168, p. 178 (1963). The aggregometer was adjusted in sensitivity to give light transmission vaues of 0 and 100% for PRP and PPP, respectively. With stirring at 1000 rpm, 0.3 μl of test compound solution or vehicle was added to 0.3 ml of PRP. After the mixture was kept at 37° C. for 2 minutes, to the mixture was added 3 μl PAF (Serdary Research Lab.) at the final concentration of 1.8×10^-7 M and the light transmission was recorded for 5 minutes.
In all experiments, PAF was dissolved in ethanol at the concentration of 100 μg/ml, and, when used, diluted with 0.9% saline solution.
(§2) The inhibition percentage of test compounds on platelet aggregation were calculated from the following formula by measuring the maximal light transmission in the presence and absence of the test compounds. [formula]

The next experiment relates to platelet aggregation. Put plainly: Inhibitory effect on platelet aggregation in rabbits (ex vivo test). Details: species or system rabbit. The conditions noted are these: 3 animals. The protocol:
as §1, §2
Test compound was orally administered to rabbit instead of adding it to PRP as in vitro test of Experiment 1, and then the citrated blood samples (9 volumes of blood+1 volume of 3.8% sodium citrate) were collected with the passage of time. Then, the blood samples were employed to determine the inhibitory effect at 1, 3, 6 and 24 hours after the administration of test compounds, respectively, according to Experiment 1.

A further experiment relates to PAF-induced foot edema. Put plainly: Effect on PAF edema (PAF-induced foot edema in rats). It is filed as in vivo, rats (male Donryu). As to conditions: 1 hour after PAF 5 μg s.c. The method, then: The experiment was carried out according to the method of Swingle et al. described in Agents and Actions, vol. 18, p. 359 (1986). Groups of five male Donryu rats weighing about 150 g were used. One hour after the oral administration of test compound (25 ml/kg), 5 μg/0.05 ml of PAF solution was subcutaneously injected to the paw of the right hind leg. The foot volume of the hind leg was measured 1 hour after the injection. The increasing ratios of foot volume before and after PAF injection were calculated.

The subject of another experiment is central system. As to conditions: U.S. Pat. No. 3,904,641; cited from earlier work.
Another experiment relates to benzodiazepine receptor. The conditions noted are these: well-known; cited from earlier work.
Experiment [2] has as its system platelet-activating factor (PAF). The conditions noted are these: literature (Japan. J. Pharmacol. 1987; EP-A 194416); cited from earlier work.
Where [3] appears, read: 3 mg/kg p.o., 1 hour after administration.
The mark [4] stands for this setting: 3 mg/kg p.o., 3 hours after administration.
Setting [5] is: 3 mg/kg p.o., 6 hours after administration.
Setting [6] is: 3 mg/kg p.o., 24 hours after administration.

Converted amounts (≈) assume the structure as drawn.

For `Cc1nnc2n1-c1sc(CCCCc3ccc(CC(C)C)cc3)cc1C(c1ccccc1Cl)=NC2` [Compound C, 4-(2-chlorophenyl)-2-[4-(4-isobutylphenyl)butyl]-9-methyl-6H-thieno[3,2-f][1,2,4]triazolo[4,3-a][1,4]diazepine], in the experiment with PAF-induced lethal shock (3.0 mg/kg p.o.), the Survival rate is listed as 100.0% and the “number of survivors/number of employed animals” value is on record as 9/9. Further, in experiment [1], the IC50 – broadly, the concentration at which inhibition is half-maximal – lay within 0.03 to 0.1 µg/mL (≈ 0.0596 to 0.199 µM).

Consider `CCCCc1ccc(CCc2cc3c(s2)-n2c(C)nnc2CN=C3c2ccccc2Cl)cc1` [Compound E, 4-(2-chlorophenyl)-2-[2-(4-n-butylphenyl)ethyl]-9-methyl-6H-thieno[3,2-f][1,2,4]triazolo[4,3-a][1,4]diazepine], for which the Survival rate worked out at 70.0% in the experiment on PAF-induced lethal shock (1.0 mg/kg p.o.) and 100.0% in the experiment with PAF-induced lethal shock (3.0 mg/kg p.o.). The figures for the “number of survivors/number of employed animals” value in the experiment on PAF-induced lethal shock (1.0 mg/kg p.o.) and in the experiment with PAF-induced lethal shock (3.0 mg/kg p.o.) were 7/10 and 10/10, respectively. For the same molecule, the “% of inhibition” value in the experiment with platelet aggregation (setting [3]) is 100±0%; in the experiment on platelet aggregation (setting [4]), 100±0%; in the experiment on platelet aggregation (setting [5]) it was 100±0%; with platelet aggregation (setting [6]) it was 94±6%. Moreover, the IC50 in experiment [1] was found to be 0.01 µg/mL (≈ 0.021 µM). Further, the “Inhibition (foot edema)” value is on record as 55% in the experiment on PAF-induced foot edema (0.1 mg/kg oral), 78% in the experiment with PAF-induced foot edema (1 mg/kg oral) and 75% with PAF-induced foot edema (3 mg/kg oral).

For the molecule `Cc1ccc(CCc2cc3c(s2)-n2c(C)nnc2CN=C3c2ccccc2Cl)cc1` [Compound B, 4-(2-chlorophenyl)-2-[2-(4-methylphenyl)ethyl]-9-methyl-6H-thieno[3,2-f][1,2,4]triazolo[4,3-a][1,4]diazepine], the IC50 in experiment [1] lay within 0.01 to 0.03 µg/mL (≈ 0.0231 to 0.0693 µM).

For `Cc1nnc2n1-c1sc(CCCc3ccc(CC(C)C)cc3)cc1C(c1ccccc1Cl)=NC2` [Compound I, 4-(2-chlorophenyl)-2-[3-(4-isobutylphenyl)propyl]9-methyl-6H-thieno[3,2-f][1,2,4]triazolo[4,3-a][1,4]diazepine], in experiment [1], the half-maximal inhibitory concentration (IC50) came out at 0.01 µg/mL (≈ 0.0204 µM).

`Cc1nnc2n1-c1sc(CCc3ccc(CC(C)C)cc3)cc1C(c1ccccc1Cl)=NC2` [Compound A, 4-(2-chlorophenyl)-2-[2-(4-isobutylphenyl)ethyl]-9-methyl-6H-thieno[3,2-f][1,2,4]triazolo[4,3-a][1,4]diazepine] gave a Survival rate in the experiment with PAF-induced lethal shock (3.0 mg/kg p.o.) of 100.0%. Besides, in the experiment on PAF-induced lethal shock (3.0 mg/kg p.o.), the “number of survivors/number of employed animals” value was 9/9. Further, the “% of inhibition” value in the experiment on platelet aggregation (setting [3]) is 97±3%; in the experiment with platelet aggregation (setting [4]) it was 100±0%; with platelet aggregation (setting [5]) it was 100±0%; with platelet aggregation (setting [6]), 100±0%. Also, the IC50 in experiment [1] is 0.003 to 0.01 µg/mL (≈ 0.00631 to 0.021 µM). The “Inhibition (foot edema)” value with PAF-induced foot edema (0.3 mg/kg oral) was 31%; in the experiment with PAF-induced foot edema (1 mg/kg oral), 51%; in the experiment with PAF-induced foot edema (3 mg/kg oral), 59%.

Regarding `CCCCc1ccc(CCc2cc3c(s2)-n2c(C)nnc2C(C)N=C3c2ccccc2Cl)cc1` (centres unmarked) [Compound L, 4-(2-chlorophenyl)-2-[2-(4-n-butylphenyl)ethyl]6,9-dimethyl-6H-thieno[3,2-f][1,2,4]triazolo[4,3-a][1,4]diazepine], the IC50 in experiment [1] lay within 0.01 to 0.03 µg/mL (≈ 0.0204 to 0.0613 µM).

As to `CCc1cc2c(s1)-n1c(C)nnc1CN=C2c1ccccc1Cl` [Etizolam, 6-(o-chlorophenyl)-8-ethyl-1-methyl-4H-s-triazolo[3,4-c]thieno[2,3-e][1,4]diazepine, reference compound], the “pharmacological activities against the central nervous system” value in the experiment with central system is on record as “antianxiety or anticonvulsant activities”. The “% of inhibition” value with platelet aggregation (10 mg/kg p.o., printed once for the 1, 3, 6, 24 hours columns) is recorded as “no effect”. In the experiment on benzodiazepine receptor, the “affinity for the benzodiazepine receptor” value was “high affinity”. For the same molecule, the IC50 in experiment [1] stood at 1.3 µg/mL (≈ 3.79 µM). Further, the “Inhibition (foot edema)” value is recorded as 38% in the experiment on PAF-induced foot edema (10 mg/kg oral) and 54% in the experiment on PAF-induced foot edema (25 mg/kg oral). In experiment [2], the “antagonistic activity on PAF” value is given as “exhibits antagonistic activity”.

As for `Cc1nnc2n1-c1sc(CCc3ccc(-c4ccccc4)cc3)cc1C(c1ccccc1Cl)=NC2` [Compound F, 4-(2-chlorophenyl)-2-[2-(4-phenylphenyl)ethyl]-9-methyl-6H-thieno[3,2-f][1,2,4]triazolo[4,3-a][1,4]diazepine], the IC50 in experiment [1] is 0.01 to 0.03 µg/mL (≈ 0.0202 to 0.0606 µM).

In the case of `Cc1nnc2n1-c1sc(Cc3ccc(CC(C)C)cc3)cc1C(c1ccccc1Cl)=NC2` [Compound H, 4-(2-chlorophenyl)-2-(4-isobutylbenzyl)-9-methyl-6H-thieno[3,2-f][1,2,4]triazolo[4,3-a][1,4]diazepine], the IC50 in experiment [1] fell in the range of 0.003 to 0.01 µg/mL (≈ 0.00651 to 0.0217 µM).

With `Cc1nnc2n1-c1sc(CCc3ccccc3)cc1C(c1ccccc1Cl)=NC2` [Compound G, 4-(2-chlorophenyl)-2-(2-phenylethyl)-9-methyl-6H-thieno[3,2-f][1,2,4]triazolo[4,3-a][1,4]diazepine], in experiment [1], the IC50 was 0.03 to 0.1 µg/mL (≈ 0.0716 to 0.239 µM).

Consider `CCc1nnc2n1-c1sc(CCc3ccc(CC(C)C)cc3)cc1C(c1ccccc1Cl)=NC2` [Compound J, 4-(2-chlorophenyl)-9-ethyl-2-[2-(4-isobutylphenyl)ethyl]-6H-thieno[3,2-f][1,2,4]triazolo[4,3-a][1,4]diazepine], for which the IC50 in experiment [1] was 0.01 to 0.03 µg/mL (≈ 0.0204 to 0.0613 µM).

With `Cc1nnc2n1-c1sc(CCc3ccc(CC(C)C)cc3)cc1C(c1ccccc1Cl)=NC2C` (centres unmarked) [Compound K, 4-(2-chlorophenyl)-2-[2-(4-isobutylphenyl)ethyl]-6,9-dimethyl-6H-thieno[3,2-f][1,2,4]triazolo[4,3-a][1,4]diazepine], in experiment [1], the IC50 lay in the range of 0.01 to 0.03 µg/mL (≈ 0.0204 to 0.0613 µM).

For the molecule `COc1ccc(CCc2cc3c(s2)-n2c(C)nnc2CN=C3c2ccccc2Cl)cc1` [Compound D, 4-(2-chlorophenyl)-2-[2-(4-methoxyphenyl)ethyl]-9-methyl-6H-thieno[3,2-f][1,2,4]triazolo[4,3-a][1,4]diazepine], the IC50 in experiment [1] was 0.01 to 0.03 µg/mL (≈ 0.0223 to 0.0668 µM).

(Values after patent US4820703A, “PAF-antagonistic thienotriazolodiazepine compounds and pharmaceutical uses thereof” (Yoshitomi Pharmaceutical Industries Ltd., priority 1986, dated 1989).)
